Measured values reported in patent US12428396B2, “Fused pyridine ring derivative, preparation method therefor, and pharmaceutical use thereof” (priority 2019, dated 2025).

Biological target: T1, HIV-1 capsid protein (Human immunodeficiency virus type 1 group M subtype B, UniProt P12493)
T1 construct: made in house; host or cells: E. coli (pET30 vector)
Assay: In vitro polymerization of HIV-1 capsid protein (His-CA/GST-CA, Eu cryptate/XL665 energy transfer)
Type: biochemical, HIV-1 NL4-3
Settings: for Imax: 37° C., 2 h incubation
Excerpt: • 1. MAb Anti GST-Eu cryptate (Cisbio) • 2. MAb Anti 6HIS-XL665 (Cisbio) • 3. His tag HIV-1 capsid protein (hereinafter referred to as His-CA) • 4. GST tag HIV-1 capsid protein (hereinafter referred to as GST-CA) • 5. 384-well unbound surface microplate, white (Corning) • 6. Microplate reader (BMG)
The HIV-1 capsid proteins aggregate spontaneously in high-salt solutions. Capsid protein sequences derived from HIV-1 NL4-3 strains (GeneBank AF324493.2) were separately tagged with 6His tag and GST tag sequences at the C-terminus, cloned into pET30 vectors, and expressed and separately tagged for expression in E. coli system and purified. His-CA and GST-CA were mixed at high-salt concentrations, and the level of polymerization of capsid proteins was detected using GST antibody labeled with Eu3+-Cryptate (energy donor) and His antibody labeled with XL665 (energy acceptor). Since the excitation spectrum of Eu3+-Cryptate overlapped with the excitation spectrum of XL665, when the capsid proteins with these two tags formed a poly complex, the energy donor and the energy acceptor could be drawn to a sufficiently close distance, the energy donor released part of the captured energy under the excitation of an external light source (such as a xenon lamp or a laser), with the emission wavelength being 620 nM, part of the resonance was transferred to the energy acceptor to excite the energy acceptor, with the emission wavelength being 665 nM, and an optical signal was generated, the signal intensity of which was in direct proportion to the degree of polymerization of the tag proteins.
His-CA was diluted to 2 μM in a clean tube with protein diluent (50 mM Tris-HCl, pH 8.0, 50 mM NaCl, 0.4 mM MgCl2, 0.05% Triton X-100, 2% glycerol) while MAb Anti 6HIS-XL665 at a final concentration of 260 nM was added; GST-CA was diluted to 20 nM with protein diluent in another clean tube while MAb Anti GST-Eu cryptate at a final concentration of 3.33 nM was added and incubated on ice for half an hour. Compounds were first formulated into a concentration of 20 mM with DMSO, then diluted to a first concentration of 2 mM with DMSO and serially 5-fold diluted to the 8th concentration. Control wells were set and added with DMSO, and serially-diluted compounds were then 20-fold diluted with protein diluent to 10-fold working concentrations. Preparation of capsid protein polymerization liquid at 2-fold concentration: 50 mM Tris-HCl, pH 8.0, 1 M NaCl, 800 mM KF; to a pre-cooled white round-bottomed 384-well plate were added 4 uL of His-CA-His antibody mixture, 4 uL of GST-CA-GST antibody mixture, 2 uL of the compounds at 10-fold concentration and 10 uL of capsid protein polymerization reaction liquid at 2-fold concentration, the plate was sealed with a light-shielding sealing plate membrane after uniformly mixing, and the reaction plate was placed in a 37° C. incubator for incubation for 2 h. After incubation, the samples were excited with an excitation light at 337 nM, and signal values at 620 nM and 665 nM were collected for detection, wherein Ratio values=(665 nM/620 nM signal)×10000 was calculated according to the signal values. IC50 values for compounds were calculated using Graphpad Prism software based on each concentration of the compounds and the corresponding Ratio values.

CC(C)(C#Cc1nc([C@H](Cc2cc(F)cc(F)c2)NC(=O)Cn2nc(C(F)(F)F)c3c2C(F)(F)[C@@H]2C[C@H]32)c(-c2ccc(Cl)c3c(NS(C)(=O)=O)nn(CC(F)(F)F)c23)c2c1CCC2)S(=O)(=O)C1CC1 (atropisomer, axis not shown; (aR)) [Example 3, N—((S)-1-((R)-4-(4-chloro-3-(methanesulfonamido)-1-(2,2,2-trifluoroethyl)-1H-indazol-7-yl)-1-(3-(cyclopropylsulfonyl)-3-methyl-but-1-yn-1-yl)-6,7-dihydro-5H-cyclopenta[c]pyridin-3-yl)-2-(3,5-difluorophenyl)ethyl)-2-((3bS,4aR)-5,5-difluoro-3-(trifluoromethyl)-3b,4,4a,5-tetrahydro-1H-cyclopropa[3,4]cyclopenta[1,2-c]pyrazol-1-yl)acetamide]
IC50: 24 nM
Imax: 98%

CC(C)(C#Cc1nc([C@H](Cc2cc(F)cc(F)c2)NC(=O)Cn2nc(C(F)(F)F)c3c2C(F)(F)[C@@H]2C[C@H]32)c(-c2ccc(Cl)c3c(NS(=O)(=O)C4CC4)nn(CC(F)(F)F)c23)c2c1CCC2)S(=O)(=O)C1CC1 (atropisomer, axis not shown; (aR)) [Example 4, N—((S)-1-((R)-4-(4-chloro-3-(cyclopropylsulfonamide)-1-(2,2,2-trifluoroethyl)-1H-indazol-7-yl)-1-(3-(cyclopropylsulfonyl)-3-methyl-but-1-yn-1-yl)-6,7-dihydro-5H-cyclopenta [c]pyridin-3-yl)-2-(3,5-difluorophenyl)ethyl)-2-((3bS,4aR)-5,5-difluoro-3-(trifluoromethyl)-3b,4,4a,5-tetrahydro-1H-cyclopropa[3,4]cyclopenta[1,2-c]pyrazol-1-1)acetamide]
IC50: 68 nM
Imax: 91%

CC(C)(C#Cc1nc([C@H](Cc2cc(F)cc(F)c2)NC(=O)Cn2nc(C(F)(F)F)c3c2C(F)(F)[C@@H]2C[C@H]32)c(-c2ccc(Cl)c3c(NS(C)(=O)=O)nn(CC(F)(F)F)c23)c2ccccc12)S(C)(=O)=O (atropisomer, axis not shown; (aR)) [Example 6, N—((S)-1-((R)-4-(4-chloro-3-(methanesulfonamido)-1-(2,2,2-trifluoroethyl)-1H-indazol-7-yl)-1-(3-methyl-3-(methanesulfonyl)but-1-yn-1-yl)isoquinolin-3-yl)-2-(3,5-difluorophenyl)ethyl)-2-((3bS,4aR)-5,5-difluoro-3-(trifluoromethyl)-3b,4,4a,5-tetrahydro-1H-cyclopropa[3,4]cyclopenta[1,2-c]pyrazol-1-yl)acetamide]
IC50: 107 nM
Imax: 75%

CC(C)(C#Cc1nc([C@H](Cc2cc(F)cc(F)c2)NC(=O)Cn2nc(C(F)(F)F)c3c2C(F)(F)[C@@H]2C[C@H]32)c(-c2ccc(Cl)c3c(NS(=O)(=O)C4CC4)nn(CC(F)(F)F)c23)c2c1CCC2)S(C)(=O)=O (atropisomer, axis not shown; (aR)) [Example 2, N—((S)-1-((R)-4-(4-chloro-3-(cyclopropylsulfonamide)-1-(2,2,2-trifluoroethyl)-1H-indazol-7-yl)-1-(3-methyl-3-(methylsulfonyl)but-1-yn-1-yl)-6,7-dihydro-5H-cyclopenta[c]pyridin-3-yl)-2-(3,5-difluorophenyl)ethyl)-2-((3bS,4aR)-5,5-difluoro-3-(trifluoromethyl)-3 b,4,4a,5-tetrahydro-1H-cyclopropa[3,4]cyclopenta[1,2-c]pyrazol-1-yl)acetamide]
IC50: 19 nM
Imax: 100%
